# In ChEMBL document CHEMBL4052765, “Synthesis and antibacterial evaluation of novel 11-O-carbamoyl clarithromycin ketolides” (2017):
# How the values were obtained:
# Assay type in all cases: functional
# [1] = tested on: Streptococcus pneumoniae; assay: Antibacterial activity against erythromycin-resistant Streptococcus pneumoniae AB11 harboring harboring mef and erm gene after 24 h by NCCLS broth microdilution method; conditions: AB11, 24 h
# [2] = tested on: Streptococcus pneumoniae; assay: Antibacterial activity against erythromycin-resistant Streptococcus pneumoniae A22072 harboring mef gene after 24 h by NCCLS broth microdilution method; conditions: A22072, 24 h
# [3] = tested on: Pseudomonas aeruginosa; assay: Antibacterial activity against penicillin-susceptible Pseudomonas aeruginosa ATCC 27853 after 24 h by NCCLS broth microdilution method; conditions: ATCC 27853, 24 h
# [4] = tested on: Bacillus subtilis; assay: Antibacterial activity against penicillin-susceptible Bacillus subtilis ATCC 9372 after 24 h by NCCLS broth microdilution method; conditions: ATCC 9372, 24 h
# [5] = tested on: Staphylococcus aureus; assay: Antibacterial activity against […] Staphylococcus aureus ATCC 29213 after 24 h by NCCLS broth microdilution method; conditions: ATCC 29213, 24 h
# [6] = tested on: Streptococcus pneumoniae; assay: Antibacterial activity against erythromycin-resistant Streptococcus pneumoniae B1 harboring erm gene after 24 h by NCCLS broth microdilution method; conditions: B1, 24 h
# [7] = tested on: Escherichia coli; assay: Antibacterial activity against penicillin-susceptible Escherichia coli ATCC 25922 after 24 h by NCCLS broth microdilution method; conditions: ATCC 25922, 24 h
# [8] = tested on: Staphylococcus aureus; assay: Antibacterial activity against erythromycin-susceptible Staphylococcus aureus ATCC 25923 after 24 h by NCCLS broth microdilution method; conditions: ATCC 25923, 24 h
# [9] = tested on: Streptococcus pyogenes; assay: Antibacterial activity against erythromycin-susceptible Streptococcus pyogenes after 24 h by NCCLS broth microdilution method
# [10] = tested on: Streptococcus pyogenes; assay: Antibacterial activity against erythromycin-resistant Streptococcus pyogenes R1 after 24 h by NCCLS broth microdilution method; conditions: R1, 24 h
Structure (SMILES),MIC [1] [µg/mL],MIC [2] [µg/mL],MIC [3] [µg/mL],MIC [4] [µg/mL],MIC [5] [µg/mL],MIC [6] [µg/mL],MIC [7] [µg/mL],MIC [8] [µg/mL],MIC [9] [µg/mL],MIC [10] [µg/mL]
CC[C@H]1OC(=O)[C@H](C)C(=O)[C@H](C)[C@@H](O[C@@H]2O[C@H](C)C[C@H](N(C)C)[C@H]2O)[C@](C)(OC)C[C@@H](C)C(=O)[C@H](C)[C@@H](OC(=O)NCCNC(=O)c2ccc(Br)cc2)[C@]1(C)O,64,1,128,1,128,128,> 128,8,2,> 128
CC[C@H]1OC(=O)[C@H](C)C(=O)[C@H](C)[C@@H](O[C@@H]2O[C@H](C)C[C@H](N(C)C)[C@H]2O)[C@](C)(OC)C[C@@H](C)C(=O)[C@H](C)[C@@H](OC(=O)NCCNC(=O)/C=C/c2ccccc2Cl)[C@]1(C)O,128,2,> 128,4,32,128,128,32,2,> 128
CC[C@H]1OC(=O)[C@H](C)C(=O)[C@H](C)[C@@H](O[C@@H]2O[C@H](C)C[C@H](N(C)C)[C@H]2O)[C@](C)(OC)C[C@@H](C)C(=O)[C@H](C)[C@@H](OC(=O)NCCNC(=O)/C=C/c2ccc(C)cc2)[C@]1(C)O,64,4,> 128,8,64,128,> 128,64,4,> 128
CC[C@H]1OC(=O)[C@H](C)C(=O)[C@H](C)[C@@H](O[C@@H]2O[C@H](C)C[C@H](N(C)C)[C@H]2O)[C@](C)(OC)C[C@@H](C)C(=O)[C@H](C)[C@@H](OC(=O)NCCNC(=O)c2ccc(C)cc2)[C@]1(C)O,64,2,> 128,2,128,128,> 128,32,4,> 128
CC[C@H]1OC(=O)[C@H](C)C(=O)[C@H](C)[C@@H](O[C@@H]2O[C@H](C)C[C@H](N(C)C)[C@H]2O)[C@](C)(OC)C[C@@H](C)C(=O)[C@H](C)[C@@H](OC(=O)NCCNC(=O)c2ccccc2)[C@]1(C)O,128,4,> 128,4,128,128,> 128,64,4,> 128
CC[C@H]1OC(=O)[C@H](C)C(=O)[C@H](C)[C@@H](O[C@@H]2O[C@H](C)C[C@H](N(C)C)[C@H]2O)[C@](C)(OC)C[C@@H](C)C(=O)[C@H](C)[C@@H](OC(=O)NCCNC(=O)c2ccc(F)cc2)[C@]1(C)O,64,2,128,1,128,128,> 128,32,2,> 128
CC[C@H]1OC(=O)[C@H](C)C(=O)[C@H](C)[C@@H](O[C@@H]2O[C@H](C)C[C@H](N(C)C)[C@H]2O)[C@](C)(OC)C[C@@H](C)C(=O)[C@H](C)[C@@H](OC(=O)NCCNC(=O)c2ccc([N+](=O)[O-])cc2)[C@]1(C)O,64,1,128,1,128,128,> 128,16,0.25,> 128
CC[C@H]1OC(=O)[C@H](C)C(=O)[C@H](C)[C@@H](O[C@@H]2O[C@H](C)C[C@H](N(C)C)[C@H]2O)[C@](C)(OC)C[C@@H](C)C(=O)[C@H](C)[C@@H](OC(=O)NCCNC(=O)c2ccccc2O)[C@]1(C)O,64,4,128,8,128,128,> 128,32,4,> 128
CC[C@H]1OC(=O)[C@H](C)C(=O)[C@H](C)[C@@H](O[C@@H]2O[C@H](C)C[C@H](N(C)C)[C@H]2O)[C@](C)(OC)C[C@@H](C)C(=O)[C@H](C)[C@@H](OC(=O)NCCNC(=O)c2cccc(O)c2)[C@]1(C)O,64,16,> 128,16,128,128,> 128,128,2,> 128
